Experimental data published in patent US11590139B2, “Substituted aminopurine compounds, compositions thereof, and methods of treatment therewith” (Signal Pharmaceuticals, LLC, priority 2014, dated 2023).

Test system: Lox-IMVI melanoma cell line
Test: Lox-IMVI anti-proliferative assay (growth inhibition, Cell Titer-Glo)
Assay type: cell-based, human
Conditions: Homo sapiens; IC50 activity level in the cell-based Lox-IMVI anti-proliferative assay; read-out: Activity
In short: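 First, compound was dispensed as a 10-point 3-fold series (0.5 nM–10 μM, duplicate). Then cells in RPMI + 10% FBS were added and grown 72 h at 37 °C with 0.2% DMSO. Finally, ATP luminescence was read and IC50 calculated versus DMSO control.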

Compound | IC50
NC(=O)[C@H]1CC[C@@H](n2c(Nc3c(F)ccc(Cl)c3F)nc3cnc(NC4CCC(F)(F)CC4)nc32)CC1 [Example 291, (1s,4s)-4-(8-(3-chloro-2,6-difluorophenylamino)-2-(4,4-difluorocyclohexylamino)-9H-purin-9-yl)cyclohexanecarboxamide] | 0.5 to 1 µM
CS(=O)(=O)N1CCC(Nc2ncc3nc(Nc4c(Cl)cc(Cl)cc4Cl)n([C@H]4CC[C@@H](C(N)=O)CC4)c3n2)CC1 [Example 292, (1s,4s)-4-(2-(1-(methylsulfonyl)piperidin-4-ylamino)-8-(2,4,6-trichlorophenylamino)-9H-purin-9-yl)cyclohexanecarboxamide] | 0.5 to 1 µM
CS(=O)(=O)N1CCC(Nc2ncc3nc(Nc4c(Cl)cccc4Cl)n([C@H]4CC[C@@H](C(N)=O)CC4)c3n2)CC1 [Example 293, (1s,4s)-4-(8-(2,6-dichlorophenylamino)-2-(1-(methylsulfonyl)piperidin-4-ylamino)-9H-purin-9-yl)cyclohexanecarboxamide] | > 1 µM
CS(=O)(=O)N1CCC(Nc2ncc3nc(Nc4c(F)cc(F)cc4Cl)n([C@H]4CC[C@@H](C(N)=O)CC4)c3n2)CC1 [Example 294, (1s,4s)-4-(8-(2-chloro-4,6-difluorophenylamino)-2-(1-(methylsulfonyl)piperidin-4-ylamino)-9H-purin-9-yl)cyclohexanecarboxamide] | > 1 µM
CS(=O)(=O)N1CCC(Nc2ncc3nc(Nc4c(F)cc(Cl)cc4F)n([C@H]4CC[C@@H](C(N)=O)CC4)c3n2)CC1 [Example 295, (1s,4s)-4-(8-(4-chloro-2,6-difluorophenylamino)-2-(1-(methylsulfonyl)piperidin-4-ylamino)-9H-purin-9-yl)cyclohexanecarboxamide] | > 1 µM
CS(=O)(=O)N1CCC(Nc2ncc3nc(Nc4c(F)cc(Cl)cc4Cl)n([C@H]4CC[C@@H](C(N)=O)CC4)c3n2)CC1 [Example 296, (1s,4s)-4-(8-(2,4-dichloro-6-fluorophenylamino)-2-(1-(methylsulfonyl)piperidin-4-ylamino)-9H-purin-9-yl)cyclohexanecarboxamide] | 0.5 to 1 µM
CS(=O)(=O)N1CCC(Nc2ncc3nc(Nc4c(Cl)cc(F)cc4Cl)n([C@H]4CC[C@@H](C(N)=O)CC4)c3n2)CC1 [Example 297, (1s,4s)-4-(8-(2,6-dichloro-4-fluorophenylamino)-2-(1-(methylsulfonyl)piperidin-4-ylamino)-9H-purin-9-yl)cyclohexanecarboxamide] | > 1 µM
CS(=O)(=O)N1CCC(Nc2ncc3nc(Nc4ccc(Cl)c(F)c4F)n([C@H]4CC[C@@H](C(N)=O)CC4)c3n2)CC1 [Example 298, (1s,4s)-4-(8-(4-chloro-2,3-difluorophenylamino)-2-(1-(methylsulfonyl)piperidin-4-ylamino)-9H-purin-9-yl)cyclohexanecarboxamide] | > 1 µM
CS(=O)(=O)N1CCC(Nc2ncc3nc(Nc4ccc(Cl)cc4Cl)n([C@H]4CC[C@@H](C(N)=O)CC4)c3n2)CC1 [Example 299, (1s,4s)-4-(8-(2,4-dichlorophenylamino)-2-(1-(methylsulfonyl)piperidin-4-ylamino)-9H-purin-9-yl)cyclohexanecarboxamide] | > 1 µM
NC(=O)[C@H]1CC[C@@H](n2c(Nc3c(Cl)cc(Cl)cc3Cl)nc3cnc(N[C@H]4C[C@H](O)C4)nc32)CC1 [Example 300, (1s,4s)-4-(2-((1r,3r)-3-hydroxycyclobutylamino)-8-(2,4,6-trichlorophenylamino)-9H-purin-9-yl)cyclohexanecarboxamide] | 0.5 to 1 µM
NC(=O)[C@H]1CC[C@@H](n2c(Nc3c(F)cc(Cl)cc3Cl)nc3cnc(N[C@H]4C[C@H](O)C4)nc32)CC1 [Example 301, (1s,4s)-4-(8-(2,4-dichloro-6-fluorophenylamino)-2-((1r,3r)-3-hydroxycyclobutylamino)-9H-purin-9-yl)cyclohexanecarboxamide] | 0.5 to 1 µM
NC(=O)[C@H]1CC[C@@H](n2c(Nc3c(Cl)cc(Cl)cc3Cl)nc3cnc(N[C@@H]4CCOC[C@@H]4F)nc32)CC1 [Example 302, (1S,4s)-4-(2-((3R,4R)-3-fluorotetrahydro-2H-pyran-4-ylamino)-8-(2,4,6-trichlorophenylamino)-9H-purin-9-yl)cyclohexanecarboxamide] | 0.5 to 1 µM
NC(=O)[C@H]1CC[C@@H](n2c(Nc3c(Cl)cc(Cl)cc3Cl)nc3cnc(N[C@H]4CCOC[C@H]4F)nc32)CC1 [Example 303, (1R,4s)-4-(2-((3S,4S)-3-fluorotetrahydro-2H-pyran-4-ylamino)-8-(2,4,6-trichlorophenylamino)-9H-purin-9-yl)cyclohexanecarboxamide] | < 0.25 µM
NC(=O)[C@H]1CC[C@@H](n2c(Nc3c(F)cccc3F)nc3cnc(N[C@@H]4CCOC[C@@H]4F)nc32)CC1 [Example 304, (1S,4s)-4-(8-(2,6-difluorophenylamino)-2-((3R,4R)-3-fluorotetrahydro-2H-pyran-4-ylamino)-9H-purin-9-yl)cyclohexanecarboxamide] | > 1 µM
NC(=O)[C@H]1CC[C@@H](n2c(Nc3c(F)cccc3F)nc3cnc(N[C@H]4CCOC[C@H]4F)nc32)CC1 [Example 305, (1R,4s)-4-(8-(2,6-difluorophenylamino)-2-((3S,4S)-3-fluorotetrahydro-2H-pyran-4-ylamino)-9H-purin-9-yl)cyclohexanecarboxamide] | 0.5 to 1 µM
NC(=O)[C@H]1CC[C@@H](n2c(Nc3c(F)cc(F)cc3F)nc3cnc(N[C@H]4CCOC[C@H]4F)nc32)CC1 [Example 306, (1R,4s)-4-(2-((3S,4S)-3-fluorotetrahydro-2H-pyran-4-ylamino)-8-(2,4,6-trifluorophenylamino)-9H-purin-9-yl)cyclohexanecarboxamide] | 0.25 to 0.5 µM
NC(=O)[C@H]1CC[C@@H](n2c(Nc3c(F)cc(F)cc3F)nc3cnc(N[C@@H]4CCOC[C@@H]4F)nc32)CC1 [Example 307, (1S,4s)-4-(2-((3R,4R)-3-fluorotetrahydro-2H-pyran-4-ylamino)-8-(2,4,6-trifluorophenylamino)-9H-purin-9-yl)cyclohexanecarboxamide] | > 1 µM
N#Cc1cc(F)c(Nc2nc3cnc(NC4CCOCC4)nc3n2[C@H]2CC[C@@H](C(N)=O)CC2)c(Cl)c1 [Example 308, (1s,4s)-4-(8-(2-chloro-4-cyano-6-fluorophenylamino)-2-(tetrahydro-2H-pyran-4-ylamino)-9H-purin-9-yl)cyclohexanecarboxamide] | < 0.25 µM
N#Cc1cc(F)c(Nc2nc3cnc(NC4CCOCC4)nc3n2[C@H]2CC[C@@H](C(N)=O)CC2)c(F)c1 [Example 309, (1s,4s)-4-(8-(4-cyano-2,6-difluorophenylamino)-2-(tetrahydro-2H-pyran-4-ylamino)-9H-purin-9-yl)cyclohexanecarboxamide] | < 0.25 µM
NC(=O)[C@H]1CC[C@@H](n2c(Nc3ccc(Cl)c(F)c3F)nc3cnc(N[C@H]4C[C@@H](O)C4)nc32)CC1 [Example 310, (1s,4s)-4-(8-(4-chloro-2,3-difluorophenylamino)-2-((1s,3s)-3-hydroxycyclobutylamino)-9H-purin-9-yl)cyclohexanecarboxamide] | > 1 µM
NC(=O)[C@H]1CC[C@@H](n2c(Nc3c(F)cc(F)cc3F)nc3cnc(N[C@H]4COC[C@@H]4O)nc32)CC1 [Example 311, (1R,4s)-4-(2-((3S,4R)-4-hydroxytetrahydrofuran-3-ylamino)-8-(2,4,6-trifluorophenylamino)-9H-purin-9-yl)cyclohexanecarboxamide] | > 1 µM
NC(=O)[C@H]1CC[C@@H](n2c(Nc3c(F)cc(F)cc3Cl)nc3cnc(N[C@H]4COC[C@@H]4O)nc32)CC1 [Example 312, (1R,4s)-4-(8-(2-chloro-4,6-difluorophenylamino)-2-((3S,4R)-4-hydroxytetrahydrofuran-3-ylamino)-9H-purin-9-yl)cyclohexanecarboxamide] | > 1 µM
NC(=O)[C@H]1CC[C@@H](n2c(Nc3c(Cl)cc(Cl)cc3Cl)nc3cnc(N[C@H]4COC[C@@H]4O)nc32)CC1 [Example 313, (1R,4s)-4-(2-((3S,4R)-4-hydroxytetrahydrofuran-3-ylamino)-8-(2,4,6-trichlorophenylamino)-9H-purin-9-yl)cyclohexanecarboxamide] | 0.5 to 1 µM
NC(=O)[C@H]1CC[C@@H](n2c(Nc3c(F)cc(Cl)cc3Cl)nc3cnc(N[C@@H]4COC[C@H]4O)nc32)CC1 [Example 314, (1S,4s)-4-(8-(2,4-dichloro-6-fluorophenylamino)-2-((3R,4S)-4-hydroxytetrahydrofuran-3-ylamino)-9H-purin-9-yl)cyclohexanecarboxamide] | > 1 µM
NC(=O)[C@H]1CC[C@@H](n2c(Nc3c(Cl)cc(F)cc3Cl)nc3cnc(N[C@@H]4COC[C@H]4O)nc32)CC1 [Example 315, (1S,4s)-4-(8-(2,6-dichloro-4-fluorophenylamino)-2-((3R,4S)-4-hydroxytetrahydrofuran-3-ylamino)-9H-purin-9-yl)cyclohexanecarboxamide] | > 1 µM
NC(=O)[C@H]1CC[C@@H](n2c(Nc3c(F)cc(Cl)cc3F)nc3cnc(N[C@@H]4COC[C@H]4O)nc32)CC1 [Example 316, (1S,4s)-4-(8-(4-chloro-2,6-difluorophenylamino)-2-((3R,4S)-4-hydroxytetrahydrofuran-3-ylamino)-9H-purin-9-yl)cyclohexanecarboxamide] | > 1 µM
NC(=O)[C@H]1CC[C@@H](n2c(Nc3ccc(Cl)c(F)c3F)nc3cnc(N[C@H]4COC[C@@H]4O)nc32)CC1 [Example 317, (1R,4s)-4-(8-(4-chloro-2,3-difluorophenylamino)-2-((3S,4R)-4-hydroxytetrahydrofuran-3-ylamino)-9H-purin-9-yl)cyclohexanecarboxamide] | 0.5 to 1 µM
NC(=O)[C@H]1CC[C@@H](n2c(Nc3c(F)ccc(Cl)c3F)nc3cnc(N[C@H]4COC[C@@H]4O)nc32)CC1 [Example 318, (1R,4s)-4-(8-(3-chloro-2,6-difluorophenylamino)-2-((3S,4R)-4-hydroxytetrahydrofuran-3-ylamino)-9H-purin-9-yl)cyclohexanecarboxamide] | > 1 µM
